Some test systems named below: NCI-H226 lung; SF-268 CNS; OVCAR-5 ovarian; HS 578T breast; K-562 leukemia; M14 melanoma; RPMI-8226 leukemia; HOP-62 NSCLC.
Test in all cases: NCI-60 cell line screen, 48 h

Where “and” joins values, the source holds several entries; their conditions need not be identical. Equal values may be shown once.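 Step 1: Grow cells in 96-well plates. Step 2: Expose to compound for 48 hours at 5 concentrations. Step 3: Interpolate endpoints linearly; if unreached, use highest concentration. GI50 marks 50% less growth. TGI marks complete inhibition of growth.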

Turning to `C=C1CC2(OC1=O)C(=O)N(CCCCCCCN1C(=O)C3(CC(=C)C(=O)O3)c3ccccc31)c1ccccc12` (stereo unspecified), the GI50 in the experiment on NCI-H226 lung was 1 µM; in the experiment on SF-268 CNS it was 3.97 µM; in the experiment with OVCAR-5 ovarian, 7.09 µM; with HS 578T breast, 5.92 µM; with K-562 leukemia, 0.953 µM; with M14 melanoma, 1.45 µM. The GI50 with RPMI-8226 leukemia is 0.841 µM; with HOP-62 NSCLC, 6.8 µM. Also, the TGI in the experiment on NCI-H226 lung is 2.76 µM; in the experiment with SF-268 CNS it was 12 µM; in the experiment with OVCAR-5 ovarian it was 14.2 µM; in the experiment with HS 578T breast, 32.3 µM; in the experiment on K-562 leukemia, 6.06 µM; in the experiment on M14 melanoma it was 5.6 µM. Further, the TGI was determined as 3.33 µM in the experiment with RPMI-8226 leukemia and 15.4 µM in the experiment on HOP-62 NSCLC.
Take `CCN(CC)CCOc1nc2ccc(OC)cc2c2c1-c1ccc(OC)cc1C2=O`: the GI50 is 0.87 µM in the experiment on NCI-H226 lung; 0.595 µM in the experiment with SF-268 CNS; 1.87 µM in the experiment on OVCAR-5 ovarian; 1.48 µM with HS 578T breast; 0.502 µM in the experiment on K-562 leukemia; 1.42 µM in the experiment with M14 melanoma. In addition, the GI50 with RPMI-8226 leukemia is 0.601 µM; in the experiment on HOP-62 NSCLC, 1.33 µM. Also, the TGI in the experiment on NCI-H226 lung turned out to be 3.06 µM; in the experiment on SF-268 CNS it was 2.02 µM; in the experiment on OVCAR-5 ovarian, 7.2 µM; in the experiment on HS 578T breast, 6.93 µM; in the experiment with K-562 leukemia it was 2.54 µM; in the experiment on M14 melanoma, 3.1 µM. The results for the TGI in the experiment with RPMI-8226 leukemia and with HOP-62 NSCLC were 2.24 µM and 6.19 µM, respectively.
On to `CNc1ccc2nc3ccc(=[N+](C)C)cc-3sc2c1`, for which the GI50 in the experiment with NCI-H226 lung was 2.31 µM and 2.53 µM; in the experiment on SF-268 CNS it was 2.28 µM and 0.465 µM; in the experiment with OVCAR-5 ovarian, 2.85 µM and 0.514 µM; in the experiment on HS 578T breast it was 4.68 µM and 1.98 µM; with K-562 leukemia, 0.513 µM and 0.756 µM; with M14 melanoma it was 1.2 µM and 0.347 µM. Besides, the GI50 is 0.287 µM and 0.8 µM in the experiment on RPMI-8226 leukemia; 2.54 µM and 0.867 µM in the experiment with HOP-62 NSCLC. Also, the TGI in the experiment with NCI-H226 lung was 10.8 µM and 12.4 µM; in the experiment with SF-268 CNS, 18.7 µM and 8.7 µM; in the experiment on OVCAR-5 ovarian it was 6.86 µM and 4.31 µM; in the experiment on K-562 leukemia, 14.1 µM and 47.4 µM; in the experiment with M14 melanoma it was 12 µM and 1.5 µM; in the experiment on RPMI-8226 leukemia, 14.6 µM and 28 µM. Moreover, in the experiment on HOP-62 NSCLC, the TGI is 15.7 µM and 7.92 µM.
Consider `Cc1ccc(-[n+]2c3cc(N)c(C)cc3nc3cc(C)c(Nc4ccccc4)cc32)cc1`, for which the GI50 in the experiment on OVCAR-5 ovarian is 0.357 µM; in the experiment with HS 578T breast, 0.0734 µM; in the experiment on K-562 leukemia it was 0.0393 µM; with M14 melanoma it was 0.134 µM; in the experiment on HOP-62 NSCLC it was 0.0472 µM. Besides, the TGI in the experiment on OVCAR-5 ovarian came out at 1.48 µM; in the experiment on HS 578T breast, 0.415 µM; in the experiment on K-562 leukemia, 2.69 µM; in the experiment with M14 melanoma, 0.428 µM; with HOP-62 NSCLC, 0.397 µM.
On to `CC(=O)Nc1ccc2c(c1)c(C1=C(c3cn(C)c4ccccc34)C(=O)NC1=O)cn2C`, for which the GI50 with NCI-H226 lung is 3.1 µM; with SF-268 CNS it was 1.41 µM; in the experiment on OVCAR-5 ovarian, more than 25 µM; with HS 578T breast, 0.596 µM; in the experiment with K-562 leukemia, 0.926 µM; in the experiment with M14 melanoma it was 1.5 µM. The values for the GI50 with RPMI-8226 leukemia and with HOP-62 NSCLC were 1.22 µM and 1.98 µM, respectively. Besides, the TGI was more than 25 µM with NCI-H226 lung; more than 25 µM in the experiment with SF-268 CNS; more than 25 µM in the experiment on OVCAR-5 ovarian; more than 6.79 µM with HS 578T breast; more than 25 µM in the experiment with K-562 leukemia; more than 25 µM with M14 melanoma. For the same molecule, the TGI is more than 22.1 µM in the experiment with RPMI-8226 leukemia and more than 25 µM in the experiment with HOP-62 NSCLC.
As to `CCOC(=O)c1c2c(n3ccc(NC(=O)CCN4CCCC4)cc13)C(=O)c1ncccc1C2=O`, the GI50 was 19 µM in the experiment on NCI-H226 lung; 0.794 µM in the experiment on SF-268 CNS; 1.57 µM in the experiment on OVCAR-5 ovarian; 1.56 µM in the experiment on RPMI-8226 leukemia; 1.08 µM with HOP-62 NSCLC. Also, the TGI in the experiment on NCI-H226 lung was found to be 45.1 µM; in the experiment with SF-268 CNS it was 2.65 µM; in the experiment on OVCAR-5 ovarian, 3.42 µM; with RPMI-8226 leukemia, 4.65 µM; with HOP-62 NSCLC, 3.11 µM.
As for `CS(=O)(=O)CCNCc1nc(-c2ccc3ncnc(Nc4ccc(F)c(Cl)c4)c3c2)cs1`, the GI50 in the experiment on NCI-H226 lung was more than 18.1 µM; with SF-268 CNS, more than 17.9 µM; with OVCAR-5 ovarian, more than 25 µM; with HS 578T breast, 15.9 µM; with K-562 leukemia, more than 12.5 µM; with M14 melanoma, 21.5 µM. The GI50 in the experiment with RPMI-8226 leukemia is more than 21.4 µM; in the experiment with HOP-62 NSCLC, more than 24.1 µM. In addition, the TGI is more than 25 µM with NCI-H226 lung; more than 25 µM with SF-268 CNS; more than 25 µM in the experiment with OVCAR-5 ovarian; more than 25 µM in the experiment with HS 578T breast; more than 19.7 µM in the experiment with K-562 leukemia; more than 25 µM in the experiment with M14 melanoma. Besides, the TGI in the experiment with RPMI-8226 leukemia and in the experiment on HOP-62 NSCLC was more than 25 µM each time.
With `Cc1ncc(CN=Cc2ccc(Cl)cc2)c(N)n1`, the TGI in the experiment with NCI-H226 lung, in the experiment on SF-268 CNS, in the experiment on OVCAR-5 ovarian, in the experiment on HS 578T breast, in the experiment with K-562 leukemia and in the experiment on M14 melanoma was more than 100 µM in each case. In addition, the TGI with RPMI-8226 leukemia and with HOP-62 NSCLC was more than 100 µM in each case.
With `O=C(NNc1nc(Cl)nc(N2CCN(C(c3ccccc3)c3ccccc3)CC2)n1)c1ccccc1`, the GI50 was 7.25 µM in the experiment on NCI-H226 lung; 1.73 µM in the experiment on SF-268 CNS; 12.7 µM in the experiment on OVCAR-5 ovarian; 1.94 µM in the experiment on HS 578T breast; 0.734 µM in the experiment on K-562 leukemia; 1.59 µM in the experiment with M14 melanoma. The GI50 with RPMI-8226 leukemia is 3.79 µM; with HOP-62 NSCLC it was 1.88 µM. The TGI in the experiment with NCI-H226 lung is 25.8 µM; in the experiment on SF-268 CNS, 3.33 µM; in the experiment with OVCAR-5 ovarian, 40.7 µM; with HS 578T breast, 4.8 µM; in the experiment on K-562 leukemia, more than 100 µM; in the experiment with M14 melanoma it was 3.12 µM. Moreover, the TGI was more than 100 µM in the experiment on RPMI-8226 leukemia and 4.04 µM with HOP-62 NSCLC.
For `O=P(O)(CCP(=O)(O)c1ccccc1)c1ccccc1`, the TGI with NCI-H226 lung, in the experiment with SF-268 CNS, with OVCAR-5 ovarian, in the experiment on HS 578T breast, in the experiment with K-562 leukemia and with M14 melanoma was more than 100 µM throughout. Further, the TGI with RPMI-8226 leukemia and with HOP-62 NSCLC was more than 100 µM throughout.

The values above are taken from PubChem BioAssay (NCI).
